Series [1] deals with T1, LIM domain kinase 1 (Homo sapiens, UniProt P53667). Briefly: Inhibition of LIMK1 (unknown origin) assessed as remaining ATP level using cofilin-2 protein as substrate measured after 60 mins incubation with enzyme by KinaseGlo assay. (Kinase-Glo reads ATP consumption through a luciferase reaction.)
Series [2] concerns the target T1, LIM domain kinase 1. Briefly: Inhibition of LIMK1 (unknown origin) assessed as ADP formation using cofilin-2 protein as substrate measured after 60 mins incubation with enzyme by Transcreener assay.
A short description of series [3]: Partition coefficient, log D of the compound at pH 7.4 by HPLC analysis. The class given is physicochemical. The settings on record: octanol/water.
A short description of series [4]: Solubility of the compound in phosphate buffer at pH 6.5 by nephelometry. The class given is physicochemical.
Series [5] is described as follows: Solubility of the compound in 0.01 M HCl at pH 2 by nephelometry. The class given is physicochemical.
Series [6] in a line: In vitro intrinsic clearance in human liver microsomes at 1 uM by LC-MS analysis. The class given is ADME. Conditions: read-out: CLH. In general terms: Liver microsomes are a subcellular fraction often used to study metabolism.
Series [7] in a line: In vitro intrinsic clearance in mouse liver microsomes at 1 uM by LC-MS analysis. It counts as ADME. Conditions: read-out: CLH.
The target of series [8] is T1, LIM domain kinase 1. In words: Inhibition of LIMK1-catalyzed cofilin phosphorylation in human ZR-75-1 cells. It counts as cell-based.
Series [9] has as its target LIM domain kinase 2 (Homo sapiens, UniProt P53671). In words: Inhibition of LIMK2 (unknown origin).
The nature of series [10]: Plasma protein binding in human by LC-MS analysis. It counts as ADME, cell-free. Conditions: read-out: PPB (converted).

Each structure is given as a SMILES string. pIC50: −log10 of the molar value. Values after ≈ are worked out from the molar mass of the structure shown. A value given as a limit tells only on which side of the number the result lay.

Chain of LIM domain kinase 2 (P53671 whole entry, the tested form may be a part): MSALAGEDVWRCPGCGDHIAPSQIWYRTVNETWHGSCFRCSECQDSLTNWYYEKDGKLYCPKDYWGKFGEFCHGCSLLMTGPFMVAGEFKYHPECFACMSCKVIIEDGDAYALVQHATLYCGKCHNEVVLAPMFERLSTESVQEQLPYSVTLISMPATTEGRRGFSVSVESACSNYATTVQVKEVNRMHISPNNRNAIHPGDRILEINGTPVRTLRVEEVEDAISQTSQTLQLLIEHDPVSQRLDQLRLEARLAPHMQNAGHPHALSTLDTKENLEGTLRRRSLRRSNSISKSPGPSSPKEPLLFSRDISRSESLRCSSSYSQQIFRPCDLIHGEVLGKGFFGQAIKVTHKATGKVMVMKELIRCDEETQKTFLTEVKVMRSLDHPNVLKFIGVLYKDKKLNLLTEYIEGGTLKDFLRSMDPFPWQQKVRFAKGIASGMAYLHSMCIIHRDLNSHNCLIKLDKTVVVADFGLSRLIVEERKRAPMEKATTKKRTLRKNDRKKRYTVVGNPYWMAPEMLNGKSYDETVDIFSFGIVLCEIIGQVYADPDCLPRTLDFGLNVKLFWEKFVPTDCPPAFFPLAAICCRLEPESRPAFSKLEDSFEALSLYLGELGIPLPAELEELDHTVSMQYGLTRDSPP
T1 sequence (P53667 whole entry, the tested form may be a part): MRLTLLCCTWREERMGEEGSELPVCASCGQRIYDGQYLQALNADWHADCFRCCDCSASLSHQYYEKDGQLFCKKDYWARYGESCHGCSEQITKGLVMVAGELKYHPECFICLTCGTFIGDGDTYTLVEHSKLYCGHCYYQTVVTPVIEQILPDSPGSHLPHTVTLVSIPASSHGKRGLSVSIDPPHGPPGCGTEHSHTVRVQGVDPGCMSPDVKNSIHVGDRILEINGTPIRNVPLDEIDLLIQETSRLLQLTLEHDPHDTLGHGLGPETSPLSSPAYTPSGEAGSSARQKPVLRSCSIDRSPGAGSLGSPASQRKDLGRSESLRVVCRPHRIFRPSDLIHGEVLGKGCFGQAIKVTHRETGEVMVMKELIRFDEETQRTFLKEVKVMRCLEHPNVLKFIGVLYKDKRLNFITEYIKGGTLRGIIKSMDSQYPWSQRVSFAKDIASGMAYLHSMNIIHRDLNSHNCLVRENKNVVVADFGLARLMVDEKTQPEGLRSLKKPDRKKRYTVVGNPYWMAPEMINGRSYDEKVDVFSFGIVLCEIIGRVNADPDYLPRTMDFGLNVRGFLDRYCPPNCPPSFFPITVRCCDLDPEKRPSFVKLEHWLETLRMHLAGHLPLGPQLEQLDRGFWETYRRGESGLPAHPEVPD

On to `N#Cc1ccc(-c2ccc3c(c2)sc2c(N)ncnc23)cc1`, for which the pIC50 in [1] is 6.08.
In the case of `Cn1c2cc(-c3cccc(C(N)=O)c3)ccc2c2ncnc(N)c21`, the pIC50 in series [2] is 6.42.
As for `Nc1ncnc2c1sc1cc(-c3ccncc3)ccc12`, the pIC50 in [1] was 6.14.
As for `CC(C)NC(=O)Nc1cccc(-c2ccc3c(c2)sc2c(N)ncnc23)c1`, the pIC50 in series [2] is 7.11.
As to `Nc1ncnc2c1sc1cc(-c3ccccc3Cl)ccc12`, in [1], the pIC50 was less than 6.00.
Regarding `Cn1c2cc(-c3ccc(O)cc3)ccc2c2ncnc(N)c21`, the pIC50 in [2] is 6.24.
`Cn1c2cc(-c3ccccc3)ccc2c2ncnc(N)c21` displayed a logD in series [3] of 3.4. The solubility (kinetic) in [4] stood at 3.1 µg/mL (≈ 11.3 µM); in series [5] it was 12.5 µg/mL (≈ 45.6 µM). In addition, the values for the microsomal CLint at 1 µM in series [6] and in series [7] were 70 µL/min/mg and 572 µL/min/mg, respectively.
Take `Nc1ccc(-c2ccc3c(c2)sc2c(N)ncnc23)cc1`: the pIC50 in [1] is 6.80.
`CCNC(=O)Nc1cccc(-c2ccc3c(c2)sc2c(N)ncnc23)c1` showed a logD in [3] of 2.4. Further, the values for the pIC50 in series [8], in series [9] and in series [2] were less than 4.52, 6.79 and 7.06, respectively. Moreover, the figures for the kinetic solubility in series [4] and in [5] were 1.6 µg/mL (≈ 4.4 µM) and 12.5 µg/mL (≈ 34.4 µM), respectively. For the same compound, the microsomal CLint at 1 µM in series [6] is 24 µL/min/mg; in series [7], 68 µL/min/mg.
As to `COc1cccc(-c2ccc3c(c2)sc2c(N)ncnc23)c1`, the pIC50 in series [1] is 6.83.
Take `Nc1ncnc2c1sc1cc(-c3cccnc3)ccc12`: in series [1], the pIC50 is 6.10.
Turning to `CC(=O)c1ccc(-c2ccc3c(c2)sc2c(N)ncnc23)cc1`, the pIC50 in series [1] is 6.76.
Still for that read-out and setting: then `Nc1ccccc1-c1ccc2c(c1)sc1c(N)ncnc12`, with 6.51.
In the case of `Nc1ncnc2c1sc1cc(-c3cccc(C(=O)O)c3)ccc12`, in series [1], the pIC50 is 6.71.
As for `Nc1ncnc2c1sc1cc(-c3cccc(CO)c3)ccc12`, the pIC50 in series [1] is 6.89.
The same measure, in the same setting: to `Nc1ncnc2c1sc1cc(-c3ccc(CO)cc3)ccc12` belongs 6.79; to `CS(=O)(=O)c1ccc(-c2ccc3c(c2)sc2c(N)ncnc23)cc1`, 6.42.
For the compound `NC(=O)c1ccc(-c2ccc3c(c2)sc2c(N)ncnc23)cc1`, the negative logarithm of the IC50 (pIC50) in series [1] is 6.81.
Still for that read-out and setting: then `COc1ccccc1-c1ccc2c(c1)sc1c(N)ncnc12`, with 6.66; and `CS(=O)(=O)Nc1ccccc1-c1ccc2c(c1)sc1c(N)ncnc12`, with 6.00.
Consider `CN1CCN(CCNC(=O)Nc2cccc(-c3ccc4c(c3)sc3c(N)ncnc34)c2)CC1`, for which the pIC50 in series [2] was 6.65.
Regarding `Cn1c2cc(-c3ccc(NC=O)cc3)ccc2c2ncnc(N)c21`, in series [2], the pIC50 was 6.30.
`Nc1ncnc2c1sc1cc(-c3cccc(-c4nn[nH]n4)c3)ccc12`: the logD in series [3] came out at 2. For the same compound, the pIC50 in [8] was less than 4.52; in series [9], 7.05; in series [1], 7.30. Further, the kinetic solubility in series [4] and in series [5] was 6.3 µg/mL (≈ 18.2 µM) throughout. Further, the fraction unbound in series [10] was 0.012. For the same compound, the microsomal CLint at 1 µM in series [6] is less than 5 µL/min/mg; in series [7], less than 6 µL/min/mg.
In the case of `Nc1ncnc2c1sc1cc(-c3ccccc3O)ccc12`, the negative logarithm of the IC50 (pIC50) in series [1] is 6.59.
Regarding `CC(C)C(=O)Nc1ncc(-c2cc(C(F)F)nn2-c2c(Cl)cccc2Cl)s1`, in series [3], the logD turned out to be 3.8. Also, the fraction unbound in series [10] was 0.029.
Take `Nc1ncnc2c1sc1cc(-c3ccccc3)ccc12`: in series [3], the logD was 3.65. In addition, the results for the solubility (kinetic) in [4] and in [5] were less than 1.6 µg/mL and 6.3 µg/mL (≈ 22.7 µM), respectively. Further, the results for the microsomal CLint at 1 µM in series [6] and in series [7] were 114 µL/min/mg and 839 µL/min/mg, respectively.
As for `Nc1ncnc2c1sc1cc(-c3ccc(NC=O)cc3)ccc12`, in [1], the pIC50 is 7.36.
As for `CC(C)CNC(=O)Nc1cccc(-c2ccc3c(c2)sc2c(N)ncnc23)c1`, the negative logarithm of the IC50 (pIC50) in [2] is 6.63.
Regarding `Nc1ncnc2c1sc1cc(-c3ccc(O)cc3)ccc12`, in [1], the pIC50 was 6.57.
Consider `Nc1ncnc2c1sc1cc(-c3cccc(O)c3)ccc12`, for which the pIC50 in series [1] is 6.64.
On to `Nc1ncnc2c1sc1cc(-c3cccc(C(=O)N4CCOCC4)c3)ccc12`, for which the pIC50 in [2] was less than 6.00.
For `CC(=O)Nc1ccc(-c2ccc3c(c2)sc2c(N)ncnc23)cc1`, the pIC50 in series [1] was 6.74.
`C[C@@H](NC(=O)c1cccc(-c2ccc3c(c2)sc2c(N)ncnc23)c1)C(N)=O`: the pIC50 in series [2] is 6.53.
For `NC(=O)c1cccc(-c2ccc3c(c2)sc2c(N)ncnc23)c1`, the logD in series [3] stood at 1.9. Also, the pIC50 in series [8] was less than 4.52; in series [9], 6.56; in series [1], 6.92; in series [2] it was 6.92. Moreover, the kinetic solubility amounted to 3.1 µg/mL (≈ 9.68 µM) in series [4] and 25 µg/mL (≈ 78 µM) in series [5]. Moreover, the fraction unbound in series [10] was 0.037. The microsomal CLint at 1 µM in series [6] is less than 5 µL/min/mg; in series [7], 26 µL/min/mg.
Consider `CC(=O)Nc1cccc(-c2ccc3c(c2)sc2c(N)ncnc23)c1`, for which the pIC50 in [1] is 6.40.
On to `Nc1ncnc2c1sc1cc(-c3cccc(C(=O)NCCO)c3)ccc12`, for which the pIC50 in series [2] was 6.64.
For `Nc1ncnc2c1sc1cc(-c3cccc(Cl)c3)ccc12`, the pIC50 in series [1] was 6.70.
As to `CS(=O)(=O)Nc1ccc(-c2ccc3c(c2)sc2c(N)ncnc23)cc1`, in series [1], the negative-log IC50 (pIC50) was 6.61.
In turn, `CCNC(=O)Nc1ncc(-c2cc(-c3c(C)cc(OC)cc3C)nc(-c3cnccn3)n2)s1` registered a logD in series [3] of 3. For the same compound, the solubility (kinetic) in series [4] and in series [5] was 1.6 µg/mL (≈ 3.47 µM) in each case. In addition, the microsomal CLint at 1 µM was less than 5 µL/min/mg in series [6] and 10 µL/min/mg in series [7]. The pIC50 in [9] was 6.16; in [2], 7.27.
Turning to `Nc1ncnc2c1sc1cc(-c3cccc(NC=O)c3)ccc12`, the pIC50 in [1] and in series [2] was 7.26 throughout.
Turning to `CS(=O)(=O)c1cccc(-c2ccc3c(c2)sc2c(N)ncnc23)c1`, in series [1], the pIC50 is 6.44.
For the compound `Nc1cccc(-c2ccc3c(c2)sc2c(N)ncnc23)c1`, in series [1], the pIC50 was 6.64.
Regarding `NC(=O)Nc1cccc(-c2ccc3c(c2)sc2c(N)ncnc23)c1`, the pIC50 in series [2] was 6.84.
`Nc1ncnc2c1sc1cc(-c3ccc(-c4nn[nH]n4)cc3)ccc12`: the negative-log IC50 (pIC50) in series [1] is 6.90.
Turning to `COc1ccc(-c2ccc3c(c2)sc2c(N)ncnc23)cc1`, the pIC50 in series [1] was 6.69.

A word on the pIC50: it is −log10 of the IC50, conventionally taken in molar units. The term logD denotes lipophilicity at a set pH, counting ionised and neutral species. A high value points to a more lipophilic compound. In general, kinetic solubility refers to the concentration staying in solution when a stock, usually in DMSO, is diluted into the medium.
